{"source": "ChEMBL document CHEMBL5331072", "about": "“Development of potent and selective FAAH inhibitors with improved drug-like properties as potential tools to treat neuroinflammatory conditions” (Eur J Med Chem, 2023)", "key": {"1321N1 [1]": {"system": "1321N1", "assay": "Antiinflammatory activity against human 1321N1 cells assessed as reduction in TBHP-induced ROS production at 1 uM incubated for 24 hrs by CellROX green reagent based flow cytometry assay", "assay_type": "functional, cell-based"}, "[2]": {"assay": "Cardiotoxicity in Langendorff-perfused Wistar rat heart assessed as effect on RR time at 0.3 uM by ECG analysis (reference value: 230+/-8.7 milliseconds)", "assay_type": "toxicity, tissue-based"}, "1321N1 [3]": {"system": "1321N1", "assay": "Cytotoxicity against human 1321N1 cells assessed as inhibition of cell growth at 1 uM measured for 24 hrs by MTT assay", "assay_type": "functional", "design": "scale not given: the % may be the effect or the level left"}, "Hippocampus [4]": {"system": "Hippocampus", "assay": "Neuroprotective activity against Wistar rat Hippocampus assessed as reduction in LPS/IFN-gamma induced PI uptake in CA1 region at 3 to 1000 nM measured for 96 hrs", "assay_type": "functional, tissue-based", "details": "dose 3-1000 nM"}, "[5]": {"assay": "Cardiotoxicity in Langendorff-perfused Wistar rat heart assessed as effect on RR time at 30 uM by ECG analysis (reference value: 230+/-8.7 milliseconds)", "assay_type": "toxicity, tissue-based"}, "[6]": {"assay": "Neurotoxicity against Wistar rat Hippocampus assessed as cell survival at 0.3 to 100 nM measured for 96 hrs by densitometric analysis", "assay_type": "toxicity, tissue-based", "details": "0.1 µM, dose 0.3-100 nM"}, "[7]": {"assay": "Cardiotoxicity in Langendorff-perfused Wistar rat heart assessed as effect on QRS interval time at 1 uM by ECG analysis (Rvb =13.6+/-0.7 milliseconds)", "assay_type": "toxicity, tissue-based"}, "[8]": {"assay": "Solubility of compound at pH 7.4 measured for 24 hrs", "assay_type": "physicochemical", "details": "buffer"}, "Monoglyceride lipase": {"molecular_target": "T1, Monoglyceride lipase (Homo sapiens, UniProt Q99685)", "T1 sequence (Q99685 whole entry)": "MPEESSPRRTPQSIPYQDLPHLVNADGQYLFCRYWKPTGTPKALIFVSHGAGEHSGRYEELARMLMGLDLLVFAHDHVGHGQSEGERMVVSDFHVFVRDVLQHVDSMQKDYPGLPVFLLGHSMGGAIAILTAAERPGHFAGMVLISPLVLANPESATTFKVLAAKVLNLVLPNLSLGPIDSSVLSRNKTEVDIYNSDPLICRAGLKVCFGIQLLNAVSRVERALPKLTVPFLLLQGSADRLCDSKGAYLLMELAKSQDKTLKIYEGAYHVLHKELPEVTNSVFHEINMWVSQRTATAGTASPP", "assay": "Inhibition of human recombinant MAGL using 7-hydroxycoumarinyl arachidonate as substrate preincubated for 30 mins followed by substrate addition and measured after 30 mins by multimode plate reader analysis"}, "[9]": {"assay": "Cardiotoxicity in Langendorff-perfused Wistar rat heart assessed as effect on heart rate at 1 uM by ECG analysis (reference value: 263.5+/-8.2 bpm)", "assay_type": "toxicity, tissue-based"}, "[10]": {"assay": "Cardiotoxicity in Langendorff-perfused Wistar rat heart assessed as effect on heart rate at 0.3 uM by ECG analysis (reference value: 263.5+/-8.2 bpm)", "assay_type": "toxicity, tissue-based"}, "[11]": {"assay": "Cardiotoxicity in Langendorff-perfused Wistar rat heart assessed as effect on QRS interval time at 10 uM by ECG analysis (Rvb =13.6+/-0.7 milliseconds)", "assay_type": "toxicity, tissue-based"}, "1321N1 [12]": {"system": "1321N1", "assay": "Cytotoxicity against human 1321N1 cells assessed as inhibition of cell growth at 100 nM measured for 24 hrs by MTT assay", "assay_type": "functional", "design": "scale not given: the % may be the effect or the level left"}, "[13]": {"assay": "Cardiotoxicity in Langendorff-perfused Wistar rat heart assessed as effect on PQ interval time at 0.3 uM by ECG analysis (Rvb =40.8+/-2.3 milliseconds)", "assay_type": "toxicity, tissue-based"}, "1321N1 [14]": {"system": "1321N1", "assay": "Cytotoxicity against human 1321N1 cells assessed as inhibition of cell growth at 10 uM measured for 24 hrs by MTT assay", "assay_type": "functional", "design": "scale not given: the % may be the effect or the level left"}, "1321N1 [15]": {"system": "1321N1", "assay": "Antiinflammatory activity against human 1321N1 cells assessed as reduction in TBHP-induced ROS production at 100 nM incubated for 24 hrs by CellROX green reagent based flow cytometry assay", "assay_type": "functional, cell-based"}, "[16]": {"assay": "Cardiotoxicity in Langendorff-perfused Wistar rat heart assessed as effect on RR time at 10 uM by ECG analysis (reference value: 230+/-8.7 milliseconds)", "assay_type": "toxicity, tissue-based"}, "[17]": {"assay": "Cardiotoxicity in Langendorff-perfused Wistar rat heart assessed as effect on QRS interval time at 30 uM by ECG analysis (Rvb =13.6+/-0.7 milliseconds)", "assay_type": "toxicity, tissue-based"}, "[18]": {"assay": "Cardiotoxicity in Langendorff-perfused Wistar rat heart assessed as effect on RR time at 1 uM by ECG analysis (reference value: 230+/-8.7 milliseconds)", "assay_type": "toxicity, tissue-based"}, "[19]": {"assay": "Cardiotoxicity in Langendorff-perfused Wistar rat heart assessed as effect on QTc interval time at 0.3 uM by ECG analysis (Rvb =72.1+/-1.4 milliseconds)", "assay_type": "toxicity, tissue-based"}, "[20]": {"assay": "Cardiotoxicity in Langendorff-perfused Wistar rat heart assessed as effect on QTc interval time at 30 uM by ECG analysis (Rvb =72.1+/-1.4 milliseconds)", "assay_type": "toxicity, tissue-based"}, "[21]": {"assay": "Cardiotoxicity in Langendorff-perfused Wistar rat heart assessed as effect on heart rate at 30 uM by ECG analysis (reference value: 263.5+/-8.2 bpm)", "assay_type": "toxicity, tissue-based"}, "[22]": {"assay": "Cardiotoxicity in Langendorff-perfused Wistar rat heart assessed as effect on PQ interval time at 30 uM by ECG analysis (Rvb =40.8+/-2.3 milliseconds)", "assay_type": "toxicity, tissue-based"}, "[23]": {"assay": "Cytotoxicity against mouse NIH3T3 cells assessed as inhibition of cell growth measured for 24 hrs by neutral red uptake assay", "assay_type": "toxicity, cell-based"}, "[24]": {"assay": "Cardiotoxicity in Langendorff-perfused Wistar rat heart assessed as effect on QRS interval time at 0.3 uM by ECG analysis (Rvb =13.6+/-0.7 milliseconds)", "assay_type": "toxicity, tissue-based"}, "[25]": {"assay": "Cardiotoxicity in Langendorff-perfused Wistar rat heart assessed as effect on PQ interval time at 1 uM by ECG analysis (Rvb =40.8+/-2.3 milliseconds)", "assay_type": "toxicity, tissue-based"}, "[26]": {"assay": "Chemical stability of the compound at pH 3 measured for 24 hrs by HPLC analysis", "assay_type": "physicochemical", "details": "buffer, read-out: Stability"}, "[27]": {"assay": "Cardiotoxicity in Langendorff-perfused Wistar rat heart assessed as effect on QTc interval time at 10 uM by ECG analysis (Rvb =72.1+/-1.4 milliseconds)", "assay_type": "toxicity, tissue-based"}, "[28]": {"assay": "Cardiotoxicity in Langendorff-perfused Wistar rat heart assessed as effect on heart rate at 10 uM by ECG analysis (reference value: 263.5+/-8.2 bpm)", "assay_type": "toxicity, tissue-based"}, "[29]": {"assay": "Cardiotoxicity in Langendorff-perfused Wistar rat heart assessed as effect on QTc interval time at 1 uM by ECG analysis (Rvb =72.1+/-1.4 milliseconds)", "assay_type": "toxicity, tissue-based"}, "[30]": {"molecular_target": "T2, Fatty-acid amide hydrolase 1 (Homo sapiens, UniProt O00519)", "T2 sequence (O00519 whole entry)": "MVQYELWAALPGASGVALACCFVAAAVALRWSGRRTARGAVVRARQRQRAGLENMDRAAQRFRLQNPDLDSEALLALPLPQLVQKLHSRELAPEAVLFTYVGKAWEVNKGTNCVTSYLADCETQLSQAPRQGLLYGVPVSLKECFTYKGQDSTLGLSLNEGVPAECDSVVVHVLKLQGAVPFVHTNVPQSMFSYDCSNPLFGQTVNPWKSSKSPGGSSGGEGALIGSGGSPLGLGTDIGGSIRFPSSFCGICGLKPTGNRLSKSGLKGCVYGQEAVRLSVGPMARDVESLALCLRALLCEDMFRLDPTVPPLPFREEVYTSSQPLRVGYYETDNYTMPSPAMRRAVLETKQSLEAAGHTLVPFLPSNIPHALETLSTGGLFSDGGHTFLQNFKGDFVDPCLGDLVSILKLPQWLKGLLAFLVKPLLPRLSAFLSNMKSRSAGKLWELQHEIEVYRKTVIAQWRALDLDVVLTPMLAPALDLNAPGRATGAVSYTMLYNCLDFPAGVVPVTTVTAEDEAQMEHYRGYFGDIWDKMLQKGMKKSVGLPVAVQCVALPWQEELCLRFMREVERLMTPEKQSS", "assay": "Inhibition of human recombinant FAAH using AMC-AA as substrate preincubated for 30 mins followed by substrate addition and measured after 30 mins by multimode plate reader analysis"}, "[31]": {"assay": "Chemical stability of the compound at pH 7.4 measured for 24 hrs by HPLC analysis", "assay_type": "physicochemical", "details": "buffer, read-out: Stability"}, "[32]": {"assay": "Cardiotoxicity in Langendorff-perfused Wistar rat heart assessed as effect on PQ interval time at 10 uM by ECG analysis (Rvb =40.8+/-2.3 milliseconds)", "assay_type": "toxicity, tissue-based"}, "[33]": {"assay": "Solubility of compound at pH 3 measured for 24 hrs", "assay_type": "physicochemical", "details": "buffer"}, "Hippocampus [34]": {"system": "Hippocampus", "assay": "Neuroprotective activity against Wistar rat Hippocampus assessed as reduction in LPS/IFN-gamma induced PI uptake in CA1 region at 30 to 100 nM measured for 96 hrs", "assay_type": "functional, tissue-based", "details": "dose 30-100 nM"}, "1321N1 [35]": {"system": "1321N1", "assay": "Cytotoxicity against human 1321N1 cells assessed as inhibition of cell growth at 10 nM measured for 24 hrs by MTT assay", "assay_type": "functional", "design": "scale not given: the % may be the effect or the level left"}, "1321N1 [36]": {"system": "1321N1", "assay": "Cytotoxicity against human 1321N1 cells assessed as inhibition of cell growth at 30 uM measured for 24 hrs by MTT assay", "assay_type": "functional", "design": "scale not given: the % may be the effect or the level left"}}, "note": "The source made the active and inactive calls. The rule behind the calls is not given here."}
{"smiles": "NC(=O)c1ccn(-c2cccc(OC(=O)N3CCN(CCCc4ccccc4)CC3)c2)c1", "values": [{"measurement": "Activity", "setting": "1321N1 [1]", "value": "Active"}, {"measurement": "Time", "setting": "[2]", "value": 223.8, "unit": "ms"}, {"measurement": "Activity", "setting": "1321N1 [3]", "value": 100.3, "unit": "%"}, {"measurement": "Activity", "setting": "Hippocampus [4]", "value": "Active"}, {"measurement": "Time", "setting": "[5]", "value": 286.4, "unit": "ms"}, {"measurement": "Activity", "setting": "[6]", "value": "Non-Toxic"}, {"measurement": "Time", "setting": "[7]", "value": 13.8, "unit": "ms"}, {"measurement": "solubility at 24 h", "setting": "[8]", "value": 42, "unit": "µM"}, {"measurement": "IC50", "setting": "Monoglyceride lipase", "value": "> 10", "unit": "µM"}, {"measurement": "Activity", "setting": "[9]", "value": 273, "unit": "bpm"}, {"measurement": "Activity", "setting": "[10]", "value": 270, "unit": "bpm"}, {"measurement": "Time", "setting": "[11]", "value": 14, "unit": "ms"}, {"measurement": "Activity", "setting": "1321N1 [12]", "value": 99.5, "unit": "%"}, {"measurement": "Time", "setting": "[13]", "value": 39.2, "unit": "ms"}, {"measurement": "Activity", "setting": "1321N1 [14]", "value": 100, "unit": "%"}, {"measurement": "Activity", "setting": "1321N1 [15]", "value": "Active"}, {"measurement": "Time", "setting": "[16]", "value": 229.8, "unit": "ms"}, {"measurement": "Time", "setting": "[17]", "value": 14.6, "unit": "ms"}, {"measurement": "Time", "setting": "[18]", "value": 220.2, "unit": "ms"}, {"measurement": "Time", "setting": "[19]", "value": 70.6, "unit": "ms"}, {"measurement": "Time", "setting": "[20]", "value": 73.5, "unit": "ms"}, {"measurement": "Activity", "setting": "[21]", "value": 190.2, "unit": "bpm"}, {"measurement": "Time", "setting": "[22]", "value": 54.8, "unit": "ms"}, {"measurement": "IC50 at 24 h", "setting": "[23]", "value": 46, "unit": "µM"}, {"measurement": "Time", "setting": "[24]", "value": 13.8, "unit": "ms"}, {"measurement": "Time", "setting": "[25]", "value": 40.6, "unit": "ms"}, {"measurement": "remaining at 24 h", "setting": "[26]", "value": "> 99", "unit": "%"}, {"measurement": "Time", "setting": "[27]", "value": 71, "unit": "ms"}, {"measurement": "Activity", "setting": "[28]", "value": 263.8, "unit": "bpm"}, {"measurement": "Time", "setting": "[29]", "value": 70.6, "unit": "ms"}, {"measurement": "IC50", "setting": "[30]", "value": 0.0101, "unit": "µM"}, {"measurement": "remaining at 24 h", "setting": "[31]", "value": "> 99", "unit": "%"}, {"measurement": "Time", "setting": "[32]", "value": 41.2, "unit": "ms"}, {"measurement": "solubility at 24 h", "setting": "[33]", "value": 228, "unit": "µM"}, {"measurement": "Activity", "setting": "Hippocampus [34]", "value": "Active"}, {"measurement": "Activity", "setting": "1321N1 [35]", "value": 100.5, "unit": "%"}, {"measurement": "Activity", "setting": "1321N1 [36]", "value": 101.5, "unit": "%"}]}
